Assay results: BindingDB's records for doi:10.1016/j.ejmech.2018.08.092 (University of Lille, 2018)

Experiment: Inhibition of BACE1 in human SH-SY5Y cells harboring wild type APP695 assessed as reduction in amyloid beta (1 to 42) level after 24 hrs by ELISA method

Row | Structure (SMILES) | IC50
1 | Oc1c(CN2CCCC2)cc(Nc2ccnc3cc(Cl)ccc23)cc1CN1CCCC1 | 11.2 µM
2 | CN(C)Cc1ccccc1-c1ccc(NCCCCN2CCCCC2)c(OCCN2CCCCC2)c1 | 1.6 µM
3 | CN(C)Cc1ccc(-c2ccc(NCCCN3CCCCC3)c(OCCN3CCCCC3)c2)cc1 | 1.7 µM
4 | CN(C)Cc1ccccc1-c1ccc(NCCN2CCCCC2)c(OCCCCN2CCCCC2)c1 | 1.6 µM
5 | c1cc(-c2ccc(NCCCN3CCCCC3)c(OCCN3CCCCC3)c2)ccc1CN1CCCCC1 | 3.3 µM
6 | CN(C)Cc1ccccc1-c1ccc(NCCCN2CCCCC2)cc1 | 3.6 µM
7 | c1cc(CN2CCCCC2)cc(-c2ccc(NCCCN3CCCCC3)c(OCCN3CCCCC3)c2)c1 | 4.8 µM
8 | CN(C)Cc1ccccc1-c1ccc(NCCCN2CCCCC2)c(OCCC2CCCCC2)c1 | 2.8 µM
9 | c1ccc(-c2cccc(OCCN3CCCCC3)c2)cc1 | 13.7 µM
10 | c1ccc(-c2ccc(NCCCN3CCCCC3)c(OCCN3CCCCC3)c2)c(CN2CCCCC2)c1 | 4.1 µM
11 | c1ccc(-c2ccc(NCCCN3CCCCC3)c(OCCN3CCCCC3)c2)c(CN2CCOCC2)c1 | 4.2 µM
12 | CN(C)Cc1ccccc1-c1ccc(NCCCN2CCCCC2)c(OCCN2CCCCC2)c1 | 3.4 µM
13 | CN(C)Cc1ccccc1-c1ccc(NCCN2CCCCC2)c(OCCN2CCCCC2)c1 | 1.2 µM
14 | c1ccc(-c2ccc(NCCCN3CCCCC3)c(OCCN3CCCCC3)c2)cc1 | 4 µM
15 | CN(C)Cc1ccccc1-c1cccc(OCCN2CCCCC2)c1 | 1.2 µM
16 | CN(C)Cc1ccn(-c2ccc(NCCCN3CCCCC3)c(OCCN3CCCCC3)c2)c1 | 6.5 µM
17 | CN(C)Cc1ccccc1-c1ccc(NCCN2CCCCC2)c(OCCCN2CCCCC2)c1 | 1.8 µM
18 | CC(C)CN(CCCN1CCN(CCCNc2nc3ccccc3[nH]2)CC1)CC(C)C [(1H-Benzoimidazol-2-yl)-{3-[4-(3-diisobutylamino-propyl)-piperazin-1-yl]-propyl}-amine] | 2.1 µM
